This note sets out measurements from article PMC11357992, “Non-invasive mapping of systemic neutrophil dynamics upon cardiovascular injury” (Nature Cardiovascular Research, 2023).

For one assay, the system named is human neutrophils. Description: ROS release of human neutrophils. The settings on record: for ROS release of human neutrophils, raw data (panel C): single samples #1-#3. It counts as cell-based. The method, then:
(§1) A total of 5 × 10^6 human neutrophils were incubated in 10 ml DMEM with or without 1 µg ml^−1 peptide or 50 µl ml^−1 emulsion. At distinct time points, cells were pelleted, and 1 ml of the supernatant was immediately frozen at −80 °C. Subsequently, the amount of ROS was determined by chemiluminescence analysis. […] After centrifugation, 80 µl supernatant was used to determine ROS by UPLC measurement (Waters Acquity Bio H-Class with 2475 FLD Detector). To this end, gradients A and B (0.1% trifluoroacetic acid in 1 l water and acetonitrile, respectively) at a flow rate of 0.26 ml min^−1 at 17 °C were used. Dihydroethidium was excited and detected at 480 nm and 580 nm, respectively.

In assay [1] the test system is murine neutrophils. Kind of assay: Phagocytosis of FITC-labeled E. coli particles by murine neutrophils after mNPPFC injection. Format: in vivo, mouse. To be noted: in the presence of the targeting PFCs. The method, then: […] per kg BW ^mNPPFCs or saline were injected i.v., followed by 100 µl FITC-labeled Escherichia coli particles (Thermo Fisher) 2 h later. […] Thereafter, FITC labeling was determined by flow cytometry.
Extended Data Fig. 9 Impact of ^mNPPFCs on murine neutrophils. a, Differentially expressed genes (DEGs) identified by bulk RNA sequencing of murine blood neutrophils after intravenous injection of ^mNPPFCs, ^ConPFCs or NaCl (Ctrl) as control. Volcano plots of DEGs for murine neutrophils of animals treated with saline compared to ^mNPPFCs (left), or ^ConPFCs compared to ^mNPPFC (right). […] BF = Bonferroni corrected p-values of the false discovery rate. In total 25655 RNA transcripts were analyzed. b, Cell surface expression of CD11b, CD62L, CD63 on blood derived murine neutrophils after intravenous application of NaCl (Ctrl) or ^mNPPFCs. As a positive control, matrigel doped with 50 µg LPS was subcutaneously implanted into the neck of mice and after 24 h, neutrophils were isolated from the blood and analyzed by flow cytometry. c, Impact of ^mNPPFC incubation on neutrophil migration, phagocytosis and release of reactive oxygen species (ROS). […]

The subject of a further assay is bone marrow neutrophils. Description: In vivo mNPPFC labeling of bone marrow neutrophils after Matrigel-LPS, 1H/19F MRI. On the set-up: species or system mouse. The settings on record: individual experiments; for total amount of 19F in the bone marrow (1H/19F MRI): mNPPFCs 1 mmol per kg BW i.v. 24 h after implantation, MRI another 24 h later; for 19F signal normalized to the number of neutrophils in the bone marrow: neutrophil number by flow cytometry directly after MRI. On the procedure: To induce defined inflammatory foci, we adopted a recently developed model of localized subcutaneous inflammation. To this end, ice-cold Matrigel (Corning) was doped with LPS (1 µg µl^−1; Salmonella typhimurium, Sigma-Aldrich) and subcutaneously (s.c.) implanted into the neck of the mice. Twenty-four hours after implanting the plug, neutrophils were isolated from the blood and incubated ex vivo with ^mNPPFCs or ^ConPFCs. In separate experiments, 24 h after implantation, ^mNPPFCs or ^ConPFCs were injected intravenously, and immune cells were isolated from the blood. In further experiments, 1 d after plug injection, mice received 1 mmol per kg BW ^mNPPFCs, and, 24 h later, the bone marrow was analyzed by ^1H/^19F MRI. Thereafter, mice were killed, and neutrophils were isolated from the bone marrow for determination of cell numbers. In each case, immune cells were analyzed by flow cytometry.
Slice packages were placed in sagittal orientation to cover the complete bone marrow in the tibia and femur in both legs using the following scan details: ^1H RARE, TR = 2,000 ms, FOV = 4.00 × 2.56 cm^2, matrix = 256 × 256, ST = 1 mm, tAcq = 1 min; ^19F RARE, TR = 2,500 ms, FOV = 4.00 × 2.56 cm^2, matrix = 64 × 64, ST = 3 mm, tAcq = 10 min.

The subject of assay [2] is murine neutrophils. Description: Cell surface activation markers CD11b, CD62L, CD63 on murine blood neutrophils. It counts as in vivo, mouse. The settings on record: mNPPFCs 1 mM per kg BW i.v., blood 2 h later; LPS = LPS-doped Matrigel s.c. 24 h before (positive control); individual experiments, only first lines of sheet shown. On the procedure: […] per kg BW ^mNPPFCs or saline were injected i.v., and, 2 h later, neutrophils were isolated from the blood and stained for CD11b, CD62L and CD63. As a positive control, mice were implanted with LPS-doped Matrigel 24 h before blood withdrawal.
A total of 1 × 10^6 isolated human neutrophils were incubated with 50 µl ml^−1 ^hNPPFCs, 1 µg ml^−1 LPS or only DMEM for 1 h at 37 °C followed by intense washing with MACS buffer. Afterward, 1 × 10^5 cells were transferred into 96-well plates and stained for CD11b and CD63 (eBioscience, clone HSC6) or CD66b (eBioscience, clone G10F5) for 20 min at 4 °C. After two washing steps with MACS buffer, cells were analyzed by flow cytometry. A total of 1 × 10^5 isolated murine neutrophils were transferred into a 96-well plate and stained for CD11b, CD62L and CD63 for 20 min at 4 °C. After two washing steps with MACS buffer, cells were analyzed by flow cytometry.
Extended Data Fig. 9 Impact of ^mNPPFCs on murine neutrophils. a, Differentially expressed genes (DEGs) identified by bulk RNA sequencing of murine blood neutrophils after intravenous injection of ^mNPPFCs, ^ConPFCs or NaCl (Ctrl) as control. […] In total 25655 RNA transcripts were analyzed. b, Cell surface expression of CD11b, CD62L, CD63 on blood derived murine neutrophils after intravenous application of NaCl (Ctrl) or ^mNPPFCs. As a positive control, matrigel doped with 50 µg LPS was subcutaneously implanted into the neck of mice and after 24 h, neutrophils were isolated from the blood and analyzed by flow cytometry. c, Impact of ^mNPPFC incubation on neutrophil migration, phagocytosis and release of reactive oxygen species (ROS). Migration was determined in vivo by assessment of the infiltration of neutrophils into a matrigel/LPS plug; phagocytosis was determined by intravenous injection of FITC-labelled E.coli into mice and the subsequent removal and flow cytometric analysis of blood neutrophils; extracellular ROS were measured within the cell supernatant of blood neutrophils by oxidation of DHE (dihydroethidium) followed by UPLC analysis. […]

Assay [3] deals with murine neutrophils. Kind of assay: ROS production of murine neutrophils after mNPPFC injection (dihydroethidium, UPLC). Format: in vivo, mouse. To be noted: in the presence of the targeting PFCs. The method, then: […] per kg BW ^mNPPFCs or saline were injected i.v., and, 2 h later, neutrophils were isolated from the bone marrow, and extracellular ROS was measured in the cell supernatant by oxidation of dihydroethidium followed by UPLC analysis.
as §1
Extended Data Fig. 9 Impact of ^mNPPFCs on murine neutrophils. a, Differentially expressed genes (DEGs) identified by bulk RNA sequencing of murine blood neutrophils after intravenous injection of ^mNPPFCs, ^ConPFCs or NaCl (Ctrl) as control. […] In total 25655 RNA transcripts were analyzed. b, Cell surface expression of CD11b, CD62L, CD63 on blood derived murine neutrophils after intravenous application of NaCl (Ctrl) or ^mNPPFCs. […]

Several values for one entry are separate records, joined by “and”; a condition that tells them apart may be missing. Identical values can stand only once. Where no end group is shown, it is not given here. Side-chain parts run from the residue outwards. rhodamine‑labelled PEGylated perfluoro‑15‑crown‑5 ether nanoemulsion = not defined here; carboxyfluorescein = N-terminal fluorescence label (CF)

Consider “hNPPFCs: PEGylated rhodamine-labeled perfluorocarbon nanoemulsion coupled with human neutrophil-specific peptide hNP (carboxyfluorescein-DLVTSKLQVGGGC; also: C-terminal Cys coupled via maleimide-PEG2000-DSPE to rhodamine-labelled perfluorocarbon nanoemulsion)”, for which the “impact on human neutrophil ROS release” value in the assay with human neutrophils (1 µg ml^−1 peptide or 50 µl ml^−1 emulsion) is “neither ^hNPPFCs nor the free peptide had any impact on human neutrophil ROS release”. Also, the “ROS release of human neutrophils, raw data (panel C)” value is 1725.82 and 1480.41 and 1396.67 in the assay on human neutrophils (time point 1); 1373.8 and 1515.29 and 1254.87 with human neutrophils (time point 3); 2382.05 and 1474.31 and 1302.37 in the assay with human neutrophils (time point 6); 1643.61 and 1455.28 in the assay on human neutrophils (time point 24).

Regarding “mNPPFCs: PEGylated rhodamine-labeled perfluoro-15-crown-5 ether nanoemulsion (maleimide PFCs) coupled with murine neutrophil-specific peptide mNP (carboxyfluorescein-DFYKPMPNLRITGGGC([maleimide‑PEG2000‑DSPE-rhodamine‑labelled PEGylated perfluoro‑15‑crown‑5 ether nanoemulsion]); reading uncertain; also: printed as DFYKPMPNLRIT-GGG-C)”, the “phagocytosis by murine neutrophils” value in the assay on murine neutrophils [1] is recorded as “unaltered”. In the assay with bone marrow neutrophils (Ctrl: Matrigel-PBS plug), the “total amount of 19F in the bone marrow (1H/19F MRI)” value was 505497 and 895713 and 688103 and 1.24E+06 and 1.03E+06; the “19F signal normalized to the number of neutrophils in the bone marrow” value was 5335.62 and 16297.54 and 4781.15 and 12000.14 and 6924.34. In the assay on bone marrow neutrophils (LPS: Matrigel-LPS plug), the “total amount of 19F in the bone marrow (1H/19F MRI)” value is 1632050.00 and 894870.00 and 1335810.00 and 1304290.00 and 940933.00; the “19F signal normalized to the number of neutrophils in the bone marrow” value was 47748.80 and 38144.50 and 144567.64 and 78101.02 and 94661.27. Further, in the assay with murine neutrophils [2], the “cell surface expression of CD11b on blood derived murine neutrophils, flow cytometry” value is 2655 and 2691 and 3361 and 1842; the “cell surface expression of CD62L on blood derived murine neutrophils, flow cytometry” value was 1971 and 1966 and 1558 and 2425; the “cell surface expression of CD63 on blood derived murine neutrophils, flow cytometry” value is 135 and 126 and 105. Moreover, the “ROS production of murine neutrophils” value with murine neutrophils [3] is on record as “unaltered”.
